Data set [1] has as its system pentagastrin-stimulated acid secretion of the perfused rat stomach. The data set is described as follows: Secretion-inhibiting action on the perfused rat stomach (pentagastrin-stimulated acid secretion, intraduodenal administration in vivo). The following applies: iv, dose 2 μmol/kg i.d., anesthetized female CD rat, pentagastrin 1 μg/kg i.v. infusion. An excerpt:
Testing of the Secretion-Inhibiting Action on the Perfused Rat Stomach
In Table A which follows, the influence of the compounds of the formula 1 according to the invention on the pentagastrin-stimulated acid secretion of the perfused rat stomach after intraduodenal administration in vivo is shown.
The abdomen of anesthetized rats (CD rat, female, 200-250 g; 1.5 g/kg i.m. urethane) was opened after tracheotomy by a median upper abdominal incision and a PVC catheter was fixed transorally in the esophagus and another via the pylorus such that the ends of the tubes just projected into the gastric lumen. The catheter leading from the pylorus led outward into the right abdominal wall through a side opening.
After thorough rinsing (about 50-100 ml), warm (37° C.) physiological NaCl solution was continuously passed through the stomach (0.5 ml/min, pH 6.8-6.9; Braun-Unita I). The pH (pH meter 632, glass electrode EA 147; φ=5 mm, Metrohm) and, by titration with a freshly prepared 0.01N NaOH solution to pH 7 (Dosimat 665 Metrohm), the secreted HCl were determined in the effluent in each case collected at an interval of 15 minutes.
The gastric secretion was stimulated by continuous infusion of […] (=1.65 ml/h) of i.v. pentagastrin (left femoral vein) about 30 min after the end of the operation (i.e. after determination of 2 preliminary fractions). The substances to be tested were administered intraduodenally in a 2.5 ml/kg liquid volume 60 min after the start of the continuous pentagastrin infusion. The body temperature of the animals was kept at a constant 37.8-38° C. by infrared irradiation and heat pads (automatic, stepless control by means of a rectal temperature sensor).

A value given as a limit tells only on which side of the number the result lay.

For 21 molecules, inhibition in vivo and melting point results are on record in US20070244173A1, “6,7-Dihydroxy-8-Phenyl-3,6,7,8-Tetrahydro-Chromeno [7,8-d] Imidazole Derivatives and Their Use as Gastric Acid Secretion Inhibitors” (Altana Pharma AG, priority 2004, published 2007).

Regarding `COCCO[C@@H]1c2ccc3c(nc(C)n3C)c2O[C@H](c2ccccc2)[C@H]1O` [Example 1, (6R,7S,8R)-7-Hydroxy-6-(2-methoxy-ethoxy)-2,3-dimethyl-8-phenyl-3,6,7,8-tetrahydro-chromeno[7,8-d]imidazole], the inhibition in vivo (usually the drop in the measured response relative to a control, in per cent) at 2 µmol/kg in data set [1] was above 50%.

In the case of `COCCO[C@H]1c2ccc3c(nc(C)n3C)c2O[C@H](c2ccccc2)[C@H]1O` [Example 2, (6S,7S,8R)-7-Hydroxy-6-(2-methoxy-ethoxy)-2,3-dimethyl-8-phenyl-3,6,7,8-tetrahydro-chromeno[7,8-d]imidazole], the melting point (in general, the temperature, or range, at which the solid turns liquid) came out at 163 °C. Besides, the inhibition in vivo at 2 µmol/kg in data set [1] is below 50%.

`Cc1nc2c3c(ccc2n1C)[C@@H](O)[C@H](O)[C@@H](c1ccccc1)O3` [Example 3, (6R,7S,8R)-6,7-Dihydroxy-2,3-dimethyl-8-phenyl-3,6,7,8-tetrahydro-chromeno[7,8-d]imidazole] registered a melting point of 262.5 °C. For the same molecule, the inhibition in vivo at 2 µmol/kg in data set [1] was below 50%.

As for `CCO[C@@H]1c2ccc3c(nc(C)n3C)c2O[C@H](c2ccccc2)[C@H]1O` [Example 4, (6R,7S,8R)-6-Ethoxy-7-hydroxy-2,3-dimethyl-8-phenyl-3,6,7,8-tetrahydro-chromeno[7,8-d]imidazole], the melting point is 222 °C. Also, the inhibition in vivo at 2 µmol/kg in data set [1] is above 50%.

Consider `Cc1nc2c3c(ccc2n1C)[C@@H](OCCF)[C@H](O)[C@@H](c1ccccc1)O3` [Example 5, (6R,7S,8R)-6-(2-Fluoro-ethoxy)-7-hydroxy-2,3-dimethyl-8-phenyl-3,6,7,8-tetrahydro-chromeno[7,8-d]imidazole], for which the melting point worked out at 226 °C. The molecule also came in with an inhibition in vivo at 2 µmol/kg in data set [1] above 50%.

`Cc1nc2c3c(ccc2n1C)[C@H]1OCCO[C@@H]1[C@@H](c1ccccc1)O3` [Example 6, (5S,6R,10R)-16,17-Dimethyl-6-phenyl-2,3,5,6,10,17-hexahydro-1,4,7-trioxa-15,17-diaza-cyclopenta[a]phenanthrene] came in with a melting point of 307 °C. The inhibition in vivo at 2 µmol/kg in data set [1] is above 50%.

Molecule `COCCO[C@@H]1c2ccc3c(nc(C)n3C)c2O[C@H](c2ccccc2)[C@H]1OC(=O)COC` [Example 7, (6R,7S,8R)-7-(2-Methoxy-acetoxy)-6-(2-methoxy-ethoxy)-2,3-dimethyl-8-phenyl-3,6,7,8-tetrahydro-chromeno[7,8-d]imidazole] gave a melting point of 200 °C. In data set [1], this molecule had an inhibition in vivo at 2 µmol/kg above 50%.

`COCCO[C@@H]1c2ccc3c(nc(C)n3C)c2O[C@H](c2ccccc2)[C@H]1OC(=O)CN(C)C` [Example 8, (6R,7S,8R)-7-(2-Dimethylamino-acetoxy)-6-(2-methoxy-ethoxy)-2,3-dimethyl-8-phenyl-3,6,7,8-tetrahydro-chromeno[7,8-d]imidazole]: the melting point turned out to be 175 °C. The inhibition in vivo at 2 µmol/kg in data set [1] is above 50%.

Take `Cc1nc2c3c(ccc2n1C)[C@@H](OCC(F)F)[C@H](O)[C@@H](c1ccccc1)O3` [Example 9, (6R,7S,8R)-7-Hydroxy-6-(2,2-difluoro-ethoxy)-2,3-dimethyl-8-phenyl-3,6,7,8-tetrahydro-chromeno[7,8-d]imidazole]: the melting point was found to be 249 °C. For the same molecule, the inhibition in vivo at 2 µmol/kg in data set [1] is above 50%.

As to `Cc1nc2c3c(ccc2[nH]1)[C@@H](O)[C@H](O)[C@@H](c1ccccc1)O3` [Example 10, (6R,7S,8R)-6,7-Dihydroxy-2-methyl-8-phenyl-3,6,7,8-tetrahydro-chromeno[7,8-d]imidazole], the melting point amounted to 163 °C.

`C=CCn1c(C)nc2c3c(ccc21)[C@@H](OCCOC)[C@H](O)[C@@H](c1ccccc1)O3` [Example 11, (6R,7S,8R)-3Allyl-7-hydroxy-6-(2-methoxy-ethoxy)-2-methyl-8-phenyl-3,6,7,8-tetrahydro-chromeno[7,8-d]imidazole] showed a melting point of 79 °C. The molecule also displayed an inhibition in vivo at 2 µmol/kg in data set [1] below 50%.

`CC=Cn1c(C)nc2c3c(ccc21)[C@@H](OCCOC)[C@H](O)[C@@H](c1ccccc1)O3` [Example 12, (6R,7S,8R)-7-Hydroxy-6-(2-methoxy-ethoxy)-2-methyl-8-phenyl-3-propenyl-3,6,7,8-tetrahydro-chromeno[7,8-d]imidazole] gave a melting point of 61 °C.

`COCCO[C@@H]1c2ccc3[nH]c(C)nc3c2O[C@H](c2ccccc2)[C@H]1O` [Example 13, (6R,7S,8R)-7-Hydroxy-6-(2-methoxy-ethoxy)-2-methyl-8-phenyl-3,6,7,8-tetrahydro-chromeno[7,8-d]imidazole] displayed a melting point of 117 °C.

As to `C=CCn1c(C)nc2c3c(ccc21)[C@@H](OCCF)[C@H](O)[C@@H](c1ccccc1)O3` [Example 14, (6R,7S,8R)-3-Allyl-7-hydroxy-6-(2-fluoro-ethoxy)-2-methyl-8-phenyl-3,6,7,8-tetrahydro-chromeno[7,8-d]imidazole], the melting point stood at 117 °C.

In turn, `CC=Cn1c(C)nc2c3c(ccc21)[C@H]1OCCO[C@@H]1[C@@H](c1ccccc1)O3` [Example 15, (5S,6R,10R)-16-Methyl-6-phenyl-17-propenyl-2,3,5,6,10,17-hexahydro-1,4,7-trioxa-15,17-diaza-cyclopenta[a]phenanthrene] showed a melting point of 213 °C. Moreover, in data set [1], the inhibition in vivo at 2 µmol/kg is above 50%.

For `Cc1nc2c3c(ccc2[nH]1)[C@H]1OCCO[C@@H]1[C@@H](c1ccccc1)O3` [Example 16, (5S,6R,10R)-16-Methyl-6-phenyl-2,3,5,6,10,17-hexahydro-1,4,7-trioxa-15,17-diaza-cyclopenta[a]phenanthrene], the melting point stood at 260 °C. The inhibition in vivo at 2 µmol/kg in data set [1] is above 50%.

Consider `Cc1nc2c3c(ccc2n1C1CC1)[C@@H](O)[C@H](O)[C@@H](c1ccccc1)O3` [Example 17, (6R,7S,8R)-3-Cyclopropyl-6,7-dihydroxy-2-methyl-8-phenyl-3,6,7,8-tetrahydro-chromeno[7,8-d]imidazole], for which the inhibition in vivo at 2 µmol/kg in data set [1] is below 50%.

`COCCO[C@@H]1c2ccc3c(nc(C)n3C3CC3)c2O[C@H](c2ccccc2)[C@H]1O` [Example 18, (6R,7S,8R)-3-Cyclopropyl-7-hydroxy-6-(2-methoxy-ethoxy)-2-methyl-8-phenyl-3,6,7,8-tetrahydro-chromeno[7,8-d]imidazole] registered a melting point of 183 °C. For the same molecule, in data set [1], the inhibition in vivo at 2 µmol/kg is below 50%.

In the case of `COCCO[C@H]1c2ccc3c(nc(C)n3C3CC3)c2O[C@H](c2ccccc2)[C@H]1O` [Example 19, (6S,7S,8R)-3-Cyclopropyl-7-hydroxy-6-(2-methoxy-ethoxy)-2-methyl-8-phenyl-3,6,7,8-tetrahydro-chromeno[7,8-d]imidazole], the melting point turned out to be 218 °C. Moreover, the inhibition in vivo at 2 µmol/kg in data set [1] is above 50%.

Take `COCCO[C@@H]1c2ccc3c(nc(C4CC4)n3C)c2O[C@H](c2ccccc2)[C@H]1O` [Example 21, (6R,7S,8R)-2-Cyclopropyl-7-hydroxy-6-(2-methoxy-ethoxy)-3-methyl-8-phenyl-3,6,7,8-tetrahydro-chromeno[7,8-d]imidazole]: the melting point is 157 °C.

In turn, `COCCO[C@H]1c2ccc3c(nc(C4CC4)n3C)c2O[C@H](c2ccccc2)[C@H]1O` [Example 22, (6S,7S,8R)-2-Cyclopropyl-7-hydroxy-6-(2-methoxy-ethoxy)-3-methyl-8-phenyl-3,6,7,8-tetrahydro-chromeno[7,8-d]imidazole] displayed a melting point of 133 °C.
